{"source": "patent US6977253B2", "about": "“Methods for the treatment of bipolar disorder using carbamazepine” (Shire Pharmaceutical Development Inc., priority 2003, dated 2005)", "origin": "cited, not measured here", "test_system": "acute mania", "conditions": "controlled carbamazepine monotherapy trials in acute mania; McElroy and Keck 2000"}
{"molecule": "NC(=O)N1c2ccccc2C=Cc2ccccc21", "note": "[carbamazepine, 5-carbamoyl-5H-dibenz(b,f)azepine]", "values": [{"measurement": "Pooled response rate", "result": 52, "unit": "%"}]}
